Results taken from patent US9023848B2 (Bionomics Limited, priority 2012, dated 2015).
Converted amounts (≈) assume the structure as drawn.

Tests used:
mice [1] = assay: Forced Swim Test (antidepressant properties); assay type: in vivo; conditions: per os 1 hour before the test
Excerpt: The forced swim test is the most widely used paradigm for the evaluation of potential antidepressant effect of drugs. Animals placed in a container filled with water show periods of increased swimming activity and periods of relative immobility. Immobile posture reflects a state of tiredness, fatigue, reduced stamina or a lowered mood (hopelessness) similar to the core symptoms observed in depressed patients and in individuals under intense stress. […] The test has some predictive value for anti-depressant drugs. The apparatus consists of a glass cylinder (height 35 cm; diameter 24 cm) filled with water (depth: 25 cm, temperature: 25±1° C.).
(§1) Test compound was prepared in aqueous vehicle containing 0.5% w/v hydroxypropylmethyl cellulose, 0.5% v/v benzyl alcohol and 0.4% v/v Tween 80. It was administrated per os 1 hour before the implementation of the test.

mice [2] = assay: Marble Burying; assay type: in vivo; conditions: per os 1 hour before the test
Excerpt: The Marble Burying test is used as a model for both anxiety and obsessive compulsive disorders. Mice have a natural tendency to bury marbles under the bedding when placed in a cage with rows of evenly spaced marbles on the floor. Suppression of this spontaneous burying has been used as a measure of anxiolytic drug action. Mice pre-treated with benzodiazepines and different classes of antidepressants bury less marbles when compared to the control mice
The apparatus consists of transparent polycarbonate cages (30 cm×18 cm×19 cm) containing a 5 cm layer of fine sawdust bedding and 20 glass marbles (diameter: 1.5 cm) spaced evenly along the walls of the cage. Each animal is placed individually in the cage where it remains for a 20 min test session. On termination of the test session the animals are removed from the cage and the number of marbles at least two-thirds buried in the sawdust is recorded.
as §1

logD7.4 = assay type: physicochemical; conditions: pH 7.4
mice [3] = assay: Modified Open Field (Dark), sedative or stimulating effect; assay type: in vivo; conditions: tested at 5-100 mg/kg, per os 1 hour before the test
Excerpt: The open field (dark) is used to measure the spontaneous motor activity of mice in a quiet, dark environment. This system is useful for discriminating the sedating or stimulating properties of test compounds on spontaneous locomotion and can thus provide a preliminary indication of potentially adverse effects such as sedation.
The apparatus is an open plexiglass cage (52×52 cm) with 40 cm walls. The animal's movements are tracked by a computerised video tracking system, consisting of an overhead camera, diode sensors placed underneath the floor of the cage, computer and video analyser software (ViewPoint, France). The video camera is placed at 2.50 m above the cage and connected to the computer via a video capture card (Pinnacle Systems, France). The video tracking system is set in a way that the floor of the OF is divided into nine equal squares. The total number of crossed squares and the total walked distance are recorded.
Each animal is singly placed in a corner of the apparatus and its locomotor activity is automatically recorded over a period of 20 minutes.
The apparatus is cleaned between each animal with alcohol (70%).
as §1

mice [4] = assay: Light Dark Box test (anxiolytic effect); assay type: in vivo; conditions: per os 1 hour before the test
Excerpt: The light dark paradigm is based on a conflict between the innate aversion of rodents to brightly illuminated areas and on the spontaneous exploratory behaviour of the mice. If given a choice between a large brightly compartment versus a small dark compartment they spontaneously prefer the dark part.
The apparatus consists of two PVC (polyvinylchloride) boxes (19×19×15 cm) covered with Plexiglas. One of these boxes is darkened. The other box is illuminated by 100 W desk lamp placed 15 cm above and providing an illumination of about 4400 Lux. An opaque plastic tunnel (5×7×10 cm) separates the dark box from the illuminated one.
Animals were placed individually in the lit box, with head directed towards the tunnel. The time spent in the lit box and the number of transitions between the two boxes was recorded over a 5 min period after the first entry of the animal in the dark box. The total walked distance in the lit box was also recorded. Animals scored without entry into the […] were excluded from the analysis.
as §1

Kinetic solubility = assay type: physicochemical; conditions: kinetic from dmso stock
cortical neurons = assay: Neurite outgrowth assay; assay type: cell-based; conditions: rat cortical neurons, 3 days exposure, tested at 1 nM, 10 nM and 100 nM
Description: Female rats of 17 days gestation were killed by cervical dislocation and the foetuses were removed from the uterus. Their brains were placed in ice-cold medium of Leibovitz (L15, Gibco, Fisher bioblock, France). Cortex were dissected and meninges were carefully removed. The cortical neurons were dissociated by trypsinization for 30 min at 37° C. (trypsin-EDTA Gibco) in presence of 0.1 mg/ml DNAse I (Roche, France). The reaction was stopped by addition of Dulbecco's Modified Eagle Medium (DMEM; Gibco) with 10% of fetal bovine serum (FBS; Gibco). The suspension was triturated with a 10-ml pipette and using a 21G needle and syringe, and centrifuged at 350×g for 10 min at room temperature. The pellet of dissociated cells was resuspended in medium consisting of Neurobasal (Gibco) supplemented with 2% B27 supplement (Gibco), 0.5 mM L-Glutamine (Gibco), an antibiotic-antimicotic mixture. Viable cells were counted in a Neubauer cytometer using the trypan blue exclusion test (Sigma). Cells were seeded on the basis of 30000 cells per Petri dish (ø35 mm, Nunc) precoated with poly-L-lysine. […]
A global analysis of the data was performed using a one way analysis of variance (ANOVA), followed by Fisher's Protected Least Significant Difference when applicable. […] All results were expressed as mean±sem. […]

rat = assay: Elevated Plus Maze; assay type: in vivo; conditions: per os 1 hour before the test
Excerpt: The Elevated Plus Maze (EPM) situation rests on the conflict between the innate tendencies of rodents to explore novel environments and avoid open and brightly lit areas. In this task the mouse is placed in the centre of the maze. From here it can walk down any of four runways. Two of the arms are well lit and open, and the other two are enclosed and dimly lit. Mice prefer the closed arms but will venture out into the open arms. The amount of time spent in the open arms and the number of times the mice enter the open arms are recorded. The total walked distance in the open arms is also recorded. “Anxious” mice will spend little time in the open arms and make very few entries into the open arms.
The apparatus is made of polyvinylchloride materials and consists of four equal exploratory arms (45×10 cm) which are all interconnected by a small platform (10×10 cm). Two arms are open and two others are closed with walls (30 cm high). The apparatus is placed 66 cm above the floor. A videotracking system is used to record the test (ViewPoint, France). […]
A trial consists of placing an animal on the central platform facing a closed arm. The number of entries and the duration spent in open arms are automatically recorded by a videotrack system during an 5 minutes period. […]

## Cc1nc2ccc(NC3Cc4ccccc4C3)cc2c(-c2ccccc2)c1C(=O)O [Example 1, 6-(2,3-dihydro-1H-inden-2-ylamino)-2-methyl-4-phenylquinoline-3-carboxylic acid]
Mice [1]
  Forced Swim Test MED (Minimum Effective Dose): MED 10 mg/kg
Mice [2]
  Marble Burying MED (Minimum Effective Dose): MED 0.1 mg/kg
logD7.4
  logD: 2
Mice [3]
  Open Field (Dark) sedation: No Sedation
Mice [4]
  Light Dark Box MED (Minimum Effective Dose): MED 0.1 mg/kg
Kinetic solubility; pH 2, simulated gastric fluid
  solubility kinetic: 25 to 50 µg/mL (≈ 63.4 to 127 µM)
Kinetic solubility; pH 6.5, aqueous buffer
  solubility kinetic: 50 to 100 µg/mL (≈ 127 to 254 µM)
Cortical neurons
  Neurite outgrowth: significant effect at concentrations: ≦100 nM
rat
  Elevated Plus Maze MED (Minimum Effective Dose): MED 0.1 mg/kg

## Cc1nc2ccc(NC3Cc4ccccc4C3)cc2c(-c2ccccc2)c1C(=O)N1CCOCC1 [Example 2]
Mice [4]
  Light Dark Box MED (Minimum Effective Dose): MED 10 mg/kg
